Results reported in patent publication US12486269B2 (Aconcagua Bio, Inc., priority 2024, dated 2025).

How the values were obtained:
[1] = biological target: T1, COS-7/AMY3 (human calcitonin receptor (CTR) and RAMP3) (Homo sapiens, UniProt O60896+P30988); assay: Amylin Receptor cAMP Assay II; assay type: cell-based; details: values marked **: Amylin Receptor cAMP Assay II; COS-7/AMY3 cells, cAMP dynamic 2 kit, 30 min; read-out: Amylin Receptor cAMP Stimulation Activity: EC50
T1 construct: expressed in transfected cells; host or cells: COS-7
In short: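 COS-7 cells stably co-expressing human CTR and RAMP3 (AMY3), 2000 cells/well in HBSS with 20 mM HEPES, 0.5 mM IBMX, 0.1% casein, stimulated with compound for 30 min at 37 °C. cAMP measured by HTRF (665/615 nm), activity normalized between vehicle and maximal control.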

[2] = biological target: T2, human calcitonin receptor (CTR) (Homo sapiens, UniProt P30988); assay: Calcitonin Receptor (CTR) cAMP Assay; assay type: cell-based; details: COS7-human CTR Clone #2 stable cell line, cAMP dynamic 2 kit, 30 min; read-out: Calcitonin Receptor cAMP Stimulation Activity: EC50
T2 construct: expressed in transfected cells; host or cells: COS-7 (COS7-human CTR Clone #2)
T2 sequence (P30988 25-474): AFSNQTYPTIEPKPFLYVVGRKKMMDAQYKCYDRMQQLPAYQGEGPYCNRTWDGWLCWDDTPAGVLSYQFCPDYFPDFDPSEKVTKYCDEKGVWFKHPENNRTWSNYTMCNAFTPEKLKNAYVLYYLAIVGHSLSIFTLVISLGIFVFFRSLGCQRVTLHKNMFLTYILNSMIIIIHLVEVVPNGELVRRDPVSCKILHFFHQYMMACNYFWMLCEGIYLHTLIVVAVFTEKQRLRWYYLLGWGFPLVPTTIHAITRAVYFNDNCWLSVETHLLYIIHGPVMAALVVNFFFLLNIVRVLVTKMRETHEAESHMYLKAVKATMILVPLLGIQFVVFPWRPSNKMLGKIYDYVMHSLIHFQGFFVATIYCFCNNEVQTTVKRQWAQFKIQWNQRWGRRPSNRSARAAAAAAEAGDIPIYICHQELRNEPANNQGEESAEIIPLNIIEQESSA
In short: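 COS-7 cells stably expressing human CTR (2000 cells/well) were incubated 30 min at 37 °C with 4-fold serially diluted compound in HBSS/20 mM HEPES/0.5 mM IBMX/0.1% casein. cAMP was detected by HTRF (665/615 nm) after 1 h at RT. % activity was normalised to vehicle and positive controls.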

T1 sequence (O60896 24-148, one chain of several): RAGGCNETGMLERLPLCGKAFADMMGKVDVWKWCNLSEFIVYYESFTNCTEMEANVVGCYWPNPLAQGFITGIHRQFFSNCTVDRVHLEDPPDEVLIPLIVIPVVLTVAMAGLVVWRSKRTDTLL

Question: Which EC50 [1] does the source give for `O=C1c2c(nc(CCc3ccc(F)cc3)c(-c3n[nH]c(=O)o3)c2-c2ccc3c(c2)oc(=O)n3Cc2ncc(Cl)cc2F)[C@@H]2CCCN12` [Compound 208, (S)-3-((5-chloro-3-fluoropyridin-2-yl)methyl)-6-(2-(4-fluorophenethyl)-5-oxo-3-(5-oxo-4,5-dihydro-1,3,4-oxadiazol-2-yl)-7,8,9,9a-tetrahydro-5H-pyrido[2,3-a]pyrrolizin-4-yl)benzo[d]oxazol-2(3H)-one] here?
Answer: 74.4 nM

Question: And the EC50 [2]?
Answer: 0.331 nM

Question: How did the EC50 [1] turn out when `CC(c1ccc(C#N)c(F)c1)n1c(=O)oc2cc(-c3c4c(nc(CCc5ccc(F)cc5)c3-c3n[nH]c(=O)o3)[C@@H]3CCCN3C4=O)ccc21` (stereo partly drawn) [Compound 209, 2-fluoro-4-(1-(6-((S)-2-(4-fluorophenethyl)-5-oxo-3-(5-oxo-4,5-dihydro-1,3,4-oxadiazol-2-yl)-7,8,9,9a-tetrahydro-5H-pyrido[2,3-a]pyrrolizin-4-yl)-2-oxobenzo[d]oxazol-3(2H)-yl)ethyl)benzonitrile] was run?
Answer: 17.2 nM

Question: What about the EC50 [2] of the same compound?
Answer: 0.154 nM

Question: Which results are given for `O=C1c2c(nc(CCc3ccc(F)cc3)c(-c3n[nH]c(=O)o3)c2-c2cnc3c(ccn3Cc3ncc(F)cc3F)c2)[C@@H]2CCCN12` [Compound 210, (S)-5-(4-(1-((3,5-difluoropyridin-2-yl)methyl)-1H-pyrrolo[2,3-b]pyridin-5-yl)-2-(4-fluorophenethyl)-5-oxo-7,8,9,9a-tetrahydro-5H-pyrido[2,3-a]pyrrolizin-3-yl)-1,3,4-oxadiazol-2(3H)-one]?
Answer: EC50 [1]: 467 nM; EC50 [2]: 23 nM

Question: Which results are given for `O=C1c2c(nc(CCc3ccc(F)cc3)c(-c3n[nH]c(=O)o3)c2-c2cnc3c(ccn3Cc3ncc(Cl)cc3F)c2)[C@@H]2CCCN12` [Compound 211, (S)-5-(4-(1-((5-chloro-3-fluoropyridin-2-yl)methyl)-1H-pyrrolo[2,3-b]pyridin-5-yl)-2-(4-fluorophenethyl)-5-oxo-7,8,9,9a-tetrahydro-5H-pyrido[2,3-a]pyrrolizin-3-yl)-1,3,4-oxadiazol-2(3H)-one]?
Answer: EC50 [1]: 434 nM; EC50 [2]: 3.85 nM

Question: Which results are given for `COc1cccc2c1CC[C@H]2Nc1nccc2cc(-c3c(-c4n[nH]c(=O)o4)c(CCc4ccc(F)cc4)nc4c3S(=O)(=O)CC4(C)C(C)C)sc12` (stereo partly drawn) [Compound 212, 5-(5-(4-fluorophenethyl)-3-isopropyl-7-(7-(((R)-4-methoxy-2,3-dihydro-1H-inden-1-yl)amino)thieno[2,3-c]pyridin-2-yl)-3-methyl-1,1-dioxido-2,3-dihydrothieno[3,2-b]pyridin-6-yl)-1,3,4-oxadiazol-2(3H)-one]?
Answer: EC50 [1]: 11700 nM; EC50 [2]: 526 nM

Question: What does the source list for `N#Cc1ccc(Cn2c(=O)oc3cc(-c4c(-c5n[nH]c(=O)o5)c(CCc5ccc(F)cc5)nc5c4S(=O)(=O)N4CCC[C@@H]54)ccc32)nc1` [Compound 213, (S)-6-((6-(2-(4-fluorophenethyl)-5,5-dioxido-3-(5-oxo-4,5-dihydro-1,3,4-oxadiazol-2-yl)-7,8,9,9a-tetrahydropyrrolo[1′,2′:2,3]isothiazolo[4,5-b]pyridin-4-yl)-2-oxobenzo[d]oxazol-3(2H)-yl)methyl)nicotinonitrile]?
Answer: EC50 [1]: 53.1 nM; EC50 [2]: 0.786 nM

Question: How did the EC50 [1] turn out when `N#Cc1ccc(Cn2ccc3cc(-c4c5c(nc(CCc6ccc(F)cc6)c4-c4n[nH]c(=O)o4)C4CCCN4C5=O)cnc32)cc1F` (stereo not shown) [Compound 214, 2-fluoro-4-((5-(2-(4-fluorophenethyl)-5-oxo-3-(5-oxo-4,5-dihydro-1,3,4-oxadiazol-2-yl)-7,8,9,9a-tetrahydro-5H-pyrido[2,3-a]pyrrolizin-4-yl)-1H-pyrrolo[2,3-b]pyridin-1-yl)methyl)benzonitrile] was run?
Answer: 129 nM

Question: What about the EC50 [2] of the same compound?
Answer: 1.92 nM

Question: `COc1cccc2c1CC[C@H]2Nc1nc(C(F)(F)F)cc2cc(-c3c4c(nc(CCc5ccc(F)cc5)c3-c3n[nH]c(=O)o3)[C@@H]3CCCN3C4=O)sc12` [Compound 215, 5-((S)-2-(4-fluorophenethyl)-4-(7-(((R)-4-methoxy-2,3-dihydro-1H-inden-1-yl)amino)-5-(trifluoromethyl)thieno[2,3-c]pyridin-2-yl)-5-oxo-7,8,9,9a-tetrahydro-5H-pyrido[2,3-a]pyrrolizin-3-yl)-1,3,4-oxadiazol-2(3H)-one] was tested. Which EC50 [1] did it give?
Answer: 7.23 nM

Question: And the EC50 [2]?
Answer: 0.406 nM

Question: What does the source list for `COc1cccc2c1CC[C@H]2Nc1cc(C(F)(F)F)cn2cc(-c3c4c(nc(CCc5ccc(F)cc5)c3-c3n[nH]c(=O)o3)[C@@H]3CCCN3C4=O)nc12` [Compound 216, 5-((S)-2-(4-fluorophenethyl)-4-(8-(((R)-4-methoxy-2,3-dihydro-1H-inden-1-yl)amino)-6-(trifluoromethyl)imidazo[1,2-a]pyridin-2-yl)-5-oxo-7,8,9,9a-tetrahydro-5H-pyrido[2,3-a]pyrrolizin-3-yl)-1,3,4-oxadiazol-2(3H)-one]?
Answer: EC50 [1]: 1340 nM; EC50 [2]: 152 nM

Question: For `COc1cccc2c1CC[C@H]2Nc1nccc2cc(-c3c4c(nc(C[C@H]5COc6cc(F)ccc65)c3-c3n[nH]c(=O)o3)[C@@H]3CCCN3C4=O)sc12` [Compound 217, 5-((S)-2-(((R)-6-fluoro-2,3-dihydrobenzofuran-3-yl)methyl)-4-(7-(((R)-4-methoxy-2,3-dihydro-1H-inden-1-yl)amino)thieno[2,3-c]pyridin-2-yl)-5-oxo-7,8,9,9a-tetrahydro-5H-pyrido[2,3-a]pyrrolizin-3-yl)-1,3,4-oxadiazol-2(3H)-one], which EC50 [1] is on record?
Answer: 47.8 nM

Question: And the EC50 [2]?
Answer: 0.706 nM

Question: Which results are given for `COc1cccc2c1CC[C@H]2Nc1nccc2cc(-c3c4c(nc(C[C@@H]5COc6cc(F)ccc65)c3-c3n[nH]c(=O)o3)[C@@H]3CCCN3C4=O)sc12` [Compound 218, 5-((S)-2-(((S)-6-fluoro-2,3-dihydrobenzofuran-3-yl)methyl)-4-(7-(((R)-4-methoxy-2,3-dihydro-1H-inden-1-yl)amino)thieno[2,3-c]pyridin-2-yl)-5-oxo-7,8,9,9a-tetrahydro-5H-pyrido[2,3-a]pyrrolizin-3-yl)-1,3,4-oxadiazol-2(3H)-one]?
Answer: EC50 [1]: 89.3 nM; EC50 [2]: 11.5 nM

Question: How did the EC50 [1] turn out when `O=C1c2c(nc(CCc3ccc(F)cc3)c(-c3n[nH]c(=O)o3)c2-c2ccc3c(Cc4ccc(F)cc4F)nccc3c2)[C@@H]2CCCN12` [Compound 219, (S)-5-(4-(1-(2,4-difluorobenzyl)isoquinolin-6-yl)-2-(4-fluorophenethyl)-5-oxo-7,8,9,9a-tetrahydro-5H-pyrido[2,3-a]pyrrolizin-3-yl)-1,3,4-oxadiazol-2(3H)-one] was run?
Answer: 437 nM

Question: What about the EC50 [2] of the same compound?
Answer: 27.4 nM

Question: Which EC50 [1] does the source give for `O=C1c2c(nc(CCc3ccc(F)cc3)c(-c3n[nH]c(=O)o3)c2-c2ccc3c(c2)CCCN3Cc2ccc(F)cc2F)[C@@H]2CCCN12` [Compound 220, (S)-5-(4-(1-(2,4-difluorobenzyl)-1,2,3,4-tetrahydroquinolin-6-yl)-2-(4-fluorophenethyl)-5-oxo-7,8,9,9a-tetrahydro-5H-pyrido[2,3-a]pyrrolizin-3-yl)-1,3,4-oxadiazol-2(3H)-one] here?
Answer: 11400 nM

Question: What about the EC50 [2] of the same compound?
Answer: 20.5 nM

Question: With `O=C1c2c(nc(CCc3ccc(F)cc3)c(-c3n[nH]c(=O)o3)c2-c2ccc3c(Cc4ccc(F)cc4F)noc3c2)[C@@H]2CCCN12` [Compound 221, (S)-5-(4-(3-(2,4-difluorobenzyl)benzo[d]isoxazol-6-yl)-2-(4-fluorophenethyl)-5-oxo-7,8,9,9a-tetrahydro-5H-pyrido[2,3-a]pyrrolizin-3-yl)-1,3,4-oxadiazol-2(3H)-one] as the compound, how does the EC50 [1] read?
Answer: 865 nM

Question: What about the EC50 [2] of the same compound?
Answer: 15.5 nM

Question: `O=C1c2c(nc(CCc3ccc(F)cc3)c(-c3n[nH]c(=O)o3)c2-c2ccc3c(Cc4ccc(F)cn4)noc3c2)[C@@H]2CCCN12` [Compound 222, (S)-5-(2-(4-fluorophenethyl)-4-(3-((5-fluoropyridin-2-yl)methyl)benzo[d]isoxazol-6-yl)-5-oxo-7,8,9,9a-tetrahydro-5H-pyrido[2,3-a]pyrrolizin-3-yl)-1,3,4-oxadiazol-2(3H)-one] was tested. Which EC50 [1] did it give?
Answer: 511 nM

Question: What about the EC50 [2] of the same compound?
Answer: 12.8 nM

Question: Which results are given for `N#Cc1ccc(Cn2ccc3cc(-c4c5c(nc(CCc6ccc(F)cc6)c4-c4n[nH]c(=O)o4)[C@@H]4CCCN4C5=O)cnc32)nc1` [Compound 223, (S)-6-((5-(2-(4-fluorophenethyl)-5-oxo-3-(5-oxo-4,5-dihydro-1,3,4-oxadiazol-2-yl)-7,8,9,9a-tetrahydro-5H-pyrido[2,3-a]pyrrolizin-4-yl)-1H-pyrrolo[2,3-b]pyridin-1-yl)methyl)nicotinonitrile]?
Answer: EC50 [1]: 758 nM; EC50 [2]: 27.6 nM

Question: `COc1cccc2c1CC[C@H]2Nc1nccc2cc(-c3c4c(nc(C[C@H]5CCc6cc(F)ccc65)c3-c3n[nH]c(=O)o3)[C@@H]3CCCN3C4=O)sc12` [Compound 224, 5-((S)-2-(((R)-5-fluoro-2,3-dihydro-1H-inden-1-yl)methyl)-4-(7-(((R)-4-methoxy-2,3-dihydro-1H-inden-1-yl)amino)thieno[2,3-c]pyridin-2-yl)-5-oxo-7,8,9,9a-tetrahydro-5H-pyrido[2,3-a]pyrrolizin-3-yl)-1,3,4-oxadiazol-2(3H)-one] was tested. Which EC50 [1] did it give?
Answer: 50.7 nM

Question: And the EC50 [2]?
Answer: 0.702 nM
